These results are taken from patent publication US8568690B2, “MRI contrast agents and high-throughput screening by MRI” (The Board of Trustees of the University of Illinois, priority 2007, dated 2013).

Experiment [1] concerns adenosine aptamer (linker-Adap) CLIO sensor. Briefly: Adenosine aptamer CLIO sensor, T2 weighted MRI and T2 relaxation time. The experiment is classed as binding. Particulars: for change in contrast of sensor (selectivity control): sensor incubated with 5 mM nucleoside. On the procedure: SPIO nanoparticles were chosen as the contrast agents to functionalize by aptamers since it is efficient at dephasing the spins of neighboring water protons, leading to change in T2 [36, 37]. It has also been shown that oligonucleotide functionalized cross-linked dextran coated superparamagnetic iron oxide nanoparticles (CLIOs) form clusters when linked with a complementary sequence. The adenosine sensor comprised CLIO aggregates that are prepared using three components: CLIO functionalized with 3′- or 5′-thiol modified DNA, called 3′Adap-CLIO and 5′Adap-CLIO respectively and a linker DNA, called linker-Adap that can hybridize to both the 3′- and 5′Adap-CLIOs, leading to the formation of clusters.
One segment of the linker is the sequence for the adenosine aptamer. Seven bases of this aptamer are involved in the hybridization with the 5′Adap-CLIO. In the presence of adenosine the aptamer undergoes structure switching in order to form the adenosine binding pocket, which results in disruption of base pairing interactions with 5′Adap-CLIO. The five remaining base pairs between the linker-Adap and the 5′Adap-CLIO are not enough to hold them together at room temperature leading to disassembly of clusters. The dispersed nanoparticles result in a higher T2 as compared to the clusters; and thus the adenosine induced disassembly can be monitored as an increase in T2 values and enhancement in brightness of T2 weighted MRI images.
The prepared sensor was then aliquoted into the wells of a microplate, with progressively increasing amount of adenosine and a T2 weighted MRI image was obtained. An increase in adenosine concentration led to an increase in the brightness of the image, as illustrated in line a) of FIG. 6. This increase was attributed to the increase in T2 due to disassembly of CLIO clusters into smaller particles. It is worth noting that even at 10 μM adenosine a detectable change in contrast was observed.
250 μl of sample was aliquoted into the wells of a microplate and varying amounts of adenosine was added in each well. The samples with serum were prepared by adding 10% human serum. Volume change was compensated by addition of distilled water.

Experiment [2] concerns the target Adenosine Deaminase (ADA) (Bos taurus, UniProt P56658). Particulars: adenosine and test molecule, tris-acetate buffer pH 8.0 (FIG. 19) and human serum (FIG. 20).
Description: The screening of ADA inhibitors can be monitored with an aptamer system whereby an MRI signal is generated when a molecule inhibits the ADA.
For example, an aggregate of paramagnetic particles can be used to monitor the screening. To this end, a mixture including paramagnetic particles that are attached to oligonucleotides is prepared. A bridge including an aptamer that binds adenosine is also present in the mixture. If the tested molecule is not effective in inhibiting ADA, adenosine is transformed into inosine, and the complementary portions of the oligonucleotides are hybridized to the bridge. Aggregation of the particles into an aggregate follows, and an increase in MRI contrast is not observed.
The resulting dehybridization leads to deaggregation of the aggregate, generating an MRI signal (FIG. 18).
The screening was monitored by incubating with aggregates that included CLIO nanoparticles attached to polynucleotides and a bridge comprising an ADA-binding aptamer. The screening of FIG. 19 was carried out in the presence of tris-acetate buffer at pH 8.0. […]
T2-weighted MRI images were obtained on a 4.7 T NMR instrument using a spin echo pulse sequence with variable echo time (TE=20−100 ms) and a repetition time (TR) of 2000 ms. Relaxation times were measured on the same instrument with the Carr-Purcell-Meiboom-Gill (CPMG) pulse sequence.

Sequence of Adenosine Deaminase (ADA) (P56658 whole entry): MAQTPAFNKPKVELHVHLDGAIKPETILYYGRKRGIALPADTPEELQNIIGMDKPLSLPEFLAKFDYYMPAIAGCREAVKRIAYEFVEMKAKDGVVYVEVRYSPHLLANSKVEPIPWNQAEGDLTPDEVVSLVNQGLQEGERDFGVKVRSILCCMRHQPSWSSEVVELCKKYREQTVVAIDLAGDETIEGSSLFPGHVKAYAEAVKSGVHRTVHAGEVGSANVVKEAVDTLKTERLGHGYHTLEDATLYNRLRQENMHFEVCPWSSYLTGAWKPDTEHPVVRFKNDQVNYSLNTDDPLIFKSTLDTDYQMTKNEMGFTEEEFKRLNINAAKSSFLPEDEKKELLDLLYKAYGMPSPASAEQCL

As for `Nc1ncnc2c1ncn2[C@@H]1O[C@H](CO)[C@@H](O)[C@H]1O` [adenosine, Adenosine], in experiment [1] (10% human serum, adenosine concentration gradient), the “MRI contrast of sensor in serum” value is listed as “the contrast within the concentration gradient increases”. In experiment [1] (T2 weighted MRI image, sensor ~20 μg Fe ml-1), the “adenosine concentration at which a detectable change in contrast was observed” value came to 10 µM. The “T2 relaxation time of sensor” value in experiment [1] (at 2.5 Mm adenosine, 36 ms at 0 adenosine) turned out to be 63 ms.

On to `Nc1nc2c(ncn2[C@@H]2O[C@H](CO)[C@@H](O)[C@H]2O)c(=O)[nH]1` [guanosine], for which the “change in contrast of sensor (selectivity control)” value (“change … (selectivity control)” below) in experiment [1] is recorded as “a significant change in contrast was not observed”.

As to “erythro-9-(2-hydroxy-3-nonyl)adenine hydrochloride [EHNA]”, the “ADA inhibition read as deaggregation of aggregates / increase in MRI brightness” value in experiment [2] was “inhibited the conversion of adenosine into inosine”.

For `Nc1ccn([C@@H]2O[C@H](CO)[C@@H](O)[C@H]2O)c(=O)n1` [control molecule 37, Cytidine], the “change … (selectivity control)” value in experiment [1] is “a significant change in contrast was not observed”.

Turning to `O=c1ccn([C@@H]2O[C@H](CO)[C@@H](O)[C@H]2O)c(=O)[nH]1` [uridine], the “change … (selectivity control)” value in experiment [1] is “a significant change in contrast was not observed”.
